Measurements: patent EP0407582A1, “DERIVATIVES OF TRICHLOROPHOSPHAS[…] INSECTICIDAL, VIRICIDAL, HEMATOCIDAL, FUNGICIDAL AND OVOCIDAL PREPARATIONS BASED ON THEM” (priority 1989, dated 1990)
Read-outs that look alike come from different tables or passages of the source.

Legend:
Botrytis cinerea [1] = experiment: Fungicidal activity, laboratory test on potato-dextrose agar; assay type: cell-based; conditions: 0.01 % by mass of active principle
Protocol: (§1) Based on the compound, a fungicidal composition was prepared in the form of a 0.01% solution thereof in distilled water. A fungicidal activity of the compound, according to the invention, was tested for inhibition of vegetative fungi growth such as Fusarium oxyporum, Fusarium moniliforme, Botrytis cinerea, Fusarium culmorum, Diplodia zeae, Rhyzoctonia violacea, Verticillium alboartrum, Verturia inaequalis, Rhyzoctonia aderholdii affecting potato, sugar beet, cotton seeds. The tests were conducted either in laboratory or in field conditions. For tests, the composition of the invention containing-0.01 % by mass of an active principle was introduced into Petri dishes with a nutrient medium, specifically, potato-dextrose agar. The phytopathogenic fungi mycelium was plated on the Petri dishes with this agar culture. The phytopathogenic fungi were plated on control dishes with agar culture without adding the composition of the invention. The fungicidal action of the composition, according to the invention, was tested in comparison with the known fungicidal composition based on 2,3-dichloronaphthoquinone-1,4 (phygon), zinc N,N'-ethylene-bis-(dithiocarbamate) (zineb) and thiuram.

Diplodia zeae [2] = experiment: as above; assay type: cell-based; conditions: 0.01 % by mass of active principle
Protocol: as §1

Fusarium culmorum [3] = experiment: as above; assay type: cell-based; conditions: 0.01 % by mass of active principle
Protocol: as §1

Fusarium moniliforme [4] = experiment: as above; assay type: cell-based; conditions: 0.01 % by mass of active principle
Protocol: as §1

Fusarium oxysporum [5] = experiment: as above; assay type: cell-based; conditions: 0.01 % by mass of active principle
Protocol: as §1

Rhyzoctonia aderholdii [6] = experiment: as above; assay type: cell-based; conditions: 0.01 % by mass of active principle
Protocol: as §1

Rhyzoctonia violacea [7] = experiment: as above; assay type: cell-based; conditions: 0.01 % by mass of active principle
Protocol: as §1

Verticillium albo-atrum [8] = experiment: as above; assay type: cell-based; conditions: 0.01 % by mass of active principle
Protocol: as §1

Verturia inaequalis [9] = experiment: as above; assay type: cell-based; conditions: 0.01 % by mass of active principle
Protocol: as §1

Botrytis cinerea [10] = experiment: Fungicidal activity, field test on sprayed potato plots; assay type: in vivo
Protocol: (§2) In the field conditions potato plantations of 5 m^2 in size affected by Fusarium oxysporem, Fusarium moniliforme, Betrytis cinerea, Fusarium culmorum, Diplodia Verturia inaequalis, Rhyzoctonia aderholdii were sprayed by a fungicidal composition of the. invention.
(§3) For comparison, a similar spraying of the affected potato-plots was carried out using a. known fungicidal compositions.

Diplodia zeae [11] = experiment: as above; assay type: in vivo
Protocol: as §2, §3

Fusarium culmorum [12] = experiment: as above; assay type: in vivo
Protocol: as §2, §3

Fusarium moniliforme [13] = experiment: as above; assay type: in vivo
Protocol: as §2, §3

Fusarium oxysporum [14] = experiment: as above; assay type: in vivo
Protocol: as §2, §3

Rhyzoctonia aderholdii [15] = experiment: as above; assay type: in vivo
Protocol: as §2, §3

Verturia inaequalis [16] = experiment: as above; assay type: in vivo
Protocol: as §2, §3

Rhyzoctonia violacea [17] = experiment: as above; assay type: in vivo
Verticillium albo-atrum [18] = experiment: as above; assay type: in vivo
[19] = Solubility in water and organic solvents; assay type: physicochemical; conditions: qualitative, solvents named
hepatitis B virus [20] = tested on: hepatitis B virus
influenza A virus [21] = tested on: influenza A virus
hepatitis B virus [22] = experiment: Virucidal activity, suspension method under protein loading, counter-current immunoelectrophoresis
influenza A virus [23] = experiment: microbe, parasite or virus in culture; set-up: species or system strain of influenza A1 virus
poliomyelitis virus = experiment: microbe, parasite or virus in culture; assay type: cell-based, poliomyelitis-II virus

Row | SMILES | Inhibition of colony growth of phyto-pathogenic fungi, % Botrytis cinerea laboratory (Botrytis cinerea [1]) | Inhibition of colony growth of phytopatogenic,fungi,% Diplidia zeae laboratory (Diplodia zeae [2]) | Inhibition of colony growth of phytopatogenic,fungi,% Fusarium culmorum laboratory (Fusarium culmorum [3]) | Inhibition of colony growth of phyto-pathogenic fungi, % Fusarium moniliforme laboratory (Fusarium moniliforme [4]) | Inhibition of colony growth of phyto-pathogenic fungi, % Fusarium oxysporum laboratory (Fusarium oxysporum [5]) | Inhibition of colony growth of phytopathogenic fungi,% Rhyzoctonia aderholdii laboratory (Rhyzoctonia aderholdii [6]) | Inhibition of colony growth of phytopatogenic,fungi,% Rhyzoctonia violacea laboratory (Rhyzoctonia violacea [7]) | Inhibition of colony growth of phytopathogenic fungi,% Verticillium albo-atrum laboratory (Verticillium albo-atrum [8]) | Inhibition of colony growth of phytopathogenic fungi,% Verturia inaequalis laboratory (Verturia inaequalis [9]) | Inhibition of colony growth of phyto-pathogenic fungi, % Botrytis cinerea field (Botrytis cinerea [10]) | Inhibition of colony growth of phytopatogenic,fungi,% Diplidia zeae field (Diplodia zeae [11]) | Inhibition of colony growth of phytopatogenic,fungi,% Fusarium culmorum field (Fusarium culmorum [12]) | Inhibition of colony growth of phyto-pathogenic fungi, % Fusarium moniliforme field (Fusarium moniliforme [13]) | Inhibition of colony growth of phyto-pathogenic fungi, % Fusarium oxysporum field (Fusarium oxysporum [14]) | Inhibition of colony growth of phytopathogenic fungi,% Rhyzoctonia aderholdii field (Rhyzoctonia aderholdii [15]) | Inhibition of colony growth of phytopathogenic fungi,% Verturia inaequalis field (Verturia inaequalis [16]) | Inhibition of colony growth of phytopatogenic,fungi,% Rhyzoctonia violacea field (Rhyzoctonia violacea [17]) | Inhibition of colony growth of phytopathogenic fungi,% Verticillium albo-atrum field (Verticillium albo-atrum [18]) | also measured
1 | O=C(N=P(Nc1ccc(Cl)cc1[N+](=O)[O-])(Nc1ccc(Cl)cc1[N+](=O)[O-])Nc1ccc(Cl)cc1[N+](=O)[O-])c1ccc(Br)cc1 [Example 6, tris--(para-chloro -ortho-nitroanilido)phosphazo-para-bromobenzoyl] | 100% | 100% | 70% | 100% | 100% | 100% | 100% | 100% | 100% | 100% | 100% | 69% | 100% | 100% | 100% | 100% | 100% | 100% | solubility [19]: soluble in water, acetone, alcohols, benzene
2 | O=C1C(Cl)=C(Cl)C(=O)c2ccccc21 [phygon, 2,3-dichloronaphthoquinone-1,4] | 38% | 71% | 57% | 35% | 35% | 54% | 34% | 63% | 58% | 32% | 81% | 45% | 32% | 30% | 55% | 61% | 33% | 66% | –
3 | O=S(=O)(NCl)c1ccccc1.[Na] [sodium-N-chloro-benzene sulf-amide, sodium N-chlorobenzene sulphonamide] | – | – | – | – | – | – | – | – | – | – | – | – | – | – | – | – | – | – | inhibition of viral antigen titers, Hepatitis B virus (hepatitis B virus [20]): 50; inhibition of viral antigen titers, Influenza A virus (influenza A virus [21]): 50; killing at 1 % (hepatitis B virus [22]; 0.25 h, read-out: Death of viruses (%) under exposure, Hepatitis B, 15 min): 0%; killing at 1 % (hepatitis B virus [22]; 0.5 h, read-out: Death of viruses (%) under exposure, Hepatitis B, 30 min): 12.5%; killing at 1 % (hepatitis B virus [22]; 1 h, read-out: Death of viruses (%) under exposure, Hepatitis B, 60 min): 25%; killing at 1 % (influenza A virus [23]; 0.25 h, read-out: Death of viruses (%) under exposure, Influenza A, 15 min): 0%; killing at 1 % (influenza A virus [23]; 0.5 h, read-out: Death of viruses (%) under exposure, Influenza A, 30 min): 12.5%; killing at 1 % (influenza A virus [23]; 1 h, read-out: Death of viruses (%) under exposure, Influenza A, 60 min): 25%; killing at 1 % (poliomyelitis virus; 10 min, read-out: Death of viruses (%) under exposure, Poliomyelitis, 10 min): 0%; killing at 1 % (poliomyelitis virus; 0.5 h, read-out: Death of viruses (%) under exposure, Poliomyelitis, 30 min): 12.5%; killing at 1 % (poliomyelitis virus; 1 h, read-out: Death of viruses (%) under exposure, Poliomyelitis, 60 min): 25%
4 | S=C([S-])NCCNC(=S)[S-].[Zn+2] [zineb, zinc N,N'-ethylene-bis-(dithiocarbamate)] | 100% | 100% | 57% | 60% | 58% | 100% | 100% | 80% | 100% | 98% | 100% | 54% | 62% | 59% | 100% | 98% | 100% | 78% | –
